Measurements from patent US7223758B2, “Pyridazine derivative, pharmaceutical composition thereof, its pharmaceutical use, and process for its preparation” (Sanofi-Aventis, priority 2002, dated 2007).

molecular target: T1, cathepsin K (Homo sapiens, UniProt P43235); assay: Study of the inhibition of cathepsin K (fluorogenic substrate Z-Val-Arg-AMC); type: biochemical; details: cathepsin K 5 ng/ml, substrate Z-Val-Arg-AMC 20 μM, pH 5.5, two hours at room temperature; concentration range from 50 to 0.5 μM
T1 sequence (P43235 115-329): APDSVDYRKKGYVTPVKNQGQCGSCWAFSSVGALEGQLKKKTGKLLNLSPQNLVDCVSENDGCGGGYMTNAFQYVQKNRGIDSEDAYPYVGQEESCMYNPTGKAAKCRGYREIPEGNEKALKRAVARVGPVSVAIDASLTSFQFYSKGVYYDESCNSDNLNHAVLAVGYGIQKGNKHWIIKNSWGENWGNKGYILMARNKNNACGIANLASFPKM
Method: Pharmacological study of the products of the invention Study of the inhibition of cathepsin K
The test products (10 mM) are diluted to 1 mM in DMSO and distributed in polystyrene Nunc 96-well plates at a rate of 2 μl per well. Column 12 of the plate is reserved for the controls and thus receives […] of DMSO (without products) per well. The plates are stored at −80° C. and thawed on the day of the experiment.
The products are diluted to 50 μM by addition of 38 μl of reaction buffer: 100 mM sodium acetate, 5 mM EDTA, 1 mM DTT, pH 5.5. The addition and all the pipetting are performed with a 96-tip CybiWell pipette. After mixing the solutions, each product is transferred into 2 wells (duplicates) of a black Greiner 384-well plate at a rate of 10 μl per well. Two 96-well plates can thus be tested in one 384-well plate.
A solution of substrate, Z-Val-Arg-AMC (Calbiochem), at a concentration of 50 μm is prepared in the reaction buffer. The substrate is the distributed among all the wells of the 384-well plate (20 μl per well).
A solution of cathepsin K at a concentration of 12.5 ng/ml is prepared in the reaction buffer and distributed among all the wells of the 384-well plate (20 μl per well) except for the 16 wells serving as 100% inhibition controls (columns 23 and 24, lines I to P), which receive 20 μl of enzyme-free buffer. […] are performed in columns 23 and 24, lines A to H, which contain no products.
The plates are then incubated for two hours at room temperature, and then read on a Fluoroskan (Labsystems): excitation 390 nm; emission 460 nm.
The final concentrations of each of the reagents are: Products 10 μM, Substrate 20 μM, enzyme 5 ng/ml.
The percentages of inhibition for each of the products are calculated by using the points at 0 and 100% inhibition of each plate as references. The products showing significant inhibition are then retested over a concentration range from 50 to 0.5 μM to determine an IC50.

Row | IC50 | Molecule
1 | < 1000 nM | N#CC(NC(=O)[C@@H]1CCCNN1C(=O)CCNC(=O)Cc1ccccc1)c1cccc(Oc2ccccc2)c1 (mixture of isomers) [Example 5, (3S)-2-[3-[(phenylacetyl)amino]-1-oxopropyl]-N-[cyano-(3-phenoxyphenyl)methyl]hexahydro-3-pyridazine-carboxamide]
2 | 1000 to 10000 nM | N#CC(OC(=O)[C@@H]1CCCNN1C(=O)CCNC(=O)Cc1ccccc1)c1cccc(Oc2ccccc2)c1 (mixture of isomers) [Example 8, 3-[cyano(3-phenoxyphenyl)methyl] (3S)-2-[1-oxo-3-[(phenylacetyl)-amino]propyl]tetrahydro-1,3-(2H)-pyridazinecarboxylate]
3 | 1000 to 10000 nM | N#CC(NC(=O)[C@@H]1CCCN(C(=O)OCc2ccccc2)N1C(=O)CCNC(=O)Cc1ccccc1)c1cccc(Oc2ccccc2)c1 (stereo partly drawn) [Example 4, (phenylmethyl) (3S)-2-[1-oxo-3-[(phenylacetyl)amino]propyl]-3-[[[cyano(3-phenoxy-phenyl)methyl]amino]carbonyl]tetrahydro-1(2H)pyridazine-carboxylate]
4 | 1000 to 10000 nM | N#CC(OC(=O)[C@@H]1CCCN(C(=O)OCc2ccccc2)N1C(=O)CCNC(=O)Cc1ccccc1)c1cccc(Oc2ccc(Br)cc2)c1 (stereo partly drawn) [Example 9, 1-(phenylmethyl)-3-[cyano-3-[(4-bromophenoxy)phenyl]-methyl] (3S)2-[1-oxo-3-[(phenylacetyl)amino]propyl]-tetrahydro-1,3(2H)-pyridazinedicarboxylate]
5 | 1000 to 10000 nM | N#CC(NC(=O)[C@@H]1CCCN(C(=O)OCc2ccccc2)N1C(=O)CCNC(=O)Cc1ccccc1)c1ccccc1 (stereo partly drawn) [Example 10, (phenylmethyl) (3S)-3-[[(cyanophenylmethyl)amino]carbonyl]-2-[1-oxo-3-[(phenylacetyl)amino]propyl]tetrahydro-1(2H)-pyridazinecarboxylate]
6 | 1000 to 10000 nM | N#CC(NC(=O)[C@@H]1CCCNN1C(=O)CCNC(=O)Cc1ccccc1)c1ccccc1 (stereo partly drawn) [Example 11, (3S)-N-(cyanophenyl-methyl)-2-[1-oxo-3-[(phenylacetyl)amino]propyl]hexa-hydro-3-pyridazinecarboxamide]
7 | 1000 to 10000 nM | N#CCNC(=O)[C@@H]1CCCN(C(=O)OCc2ccccc2)N1C(=O)CCNC(=O)Cc1ccccc1 [Example 12]
8 | 1000 to 10000 nM | N#CNC(=O)[C@@H]1CCCNN1C(=O)CCNC(=O)Cc1ccccc1 [Example 13, (3S)-N-cyano-2-[1-oxo-3-[(phenylacetyl)amino]propyl]hexahydro-3-pyridazinecarb-oxamide]
9 | < 1000 nM | N#CC(NC(=O)[C@@H]1CCCNN1C(=O)CCc1ccccc1)c1cccc(Oc2ccccc2)c1 (stereo partly drawn) [Example 15, (3S)-N-[cyano(3-phenoxyphenyl)methyl]-2-(1-oxo-3-phenylpropyl)hexa-hydro-3-pyridazinecarboxamide]
10 | 1000 to 10000 nM | (phenylmethyl) (3S)-3-[[[cyano(3-phenoxyphenyl)methyl]amino]carbonyl]-2-[3-phenyl-1-oxopropyl]tetrahydro-1(2H)-pyridazine-carboxylate [Example 14]

Row | Molecule | IC50
11 | N#CC(OC(=O)[C@@H]1CCCN(C(=O)OCc2ccccc2)N1C(=O)CCNC(=O)Cc1ccccc1)c1cccc(Oc2ccccc2)c1 (mixture of isomers) [Example 7, 1-(phenylmethyl)-3-[(R)-cyano(3-phenoxyphenyl)methyl](3S)-2-[1-oxo-3-[(phenylacetyl)amino]propyl]tetrahydro-1,3(2H)-pyridazinedicarboxylate] | 1000 to 10000 nM
